This passage reports IC50 results from US8420820B2, “Pyrrolopyridinylpyrimidin-2-ylamine derivatives” (Merck Patent GmbH, priority 2008, dated 2013).

For one experiment, the target named is T1, PDK1 (Homo sapiens, UniProt O15530).
T1 construct: His6 (N)
Put plainly: Test for the inhibition of PDK1 (flashplate, 33P-ATP). The class given is biochemical. The following applies: His6-PDK1 3.4 nM, 4 μM ATP, 30° C., 60 min. As to the method:
The experimental batches are carried out in a flashplate system with 384 wells/microtitration plate.
In each case, the PDK1 sample His6-PDK1(SEQ ID NO: 2)(1-50)(3.4 nM), the PDK1 substrate biotin-bA-bA-[…] (SEQ ID NO: 3) (400 nM), 4 μM ATP (with 0.2 μCi of ^33P-ATP/well) and the test substance in 50 μl of conventional experimental solution per well are incubated at 30° C. for 60 min. The test substances are employed in corresponding concentrations (if desired in a dilution series). The control is carried out without test substance. The reaction is stopped using standard methods and washed. The activity of the kinase is measured via the incorporated radioactivity in top count. In order to determine the non-specific kinase reaction (blank value), the experimental batches are carried out in the presence of 100 nM staurosporin.
The radioactivity (decompositions per minute) of the blank value (no use of test substance in the presence of staurosporin) is subtracted from all other radioactivity values. The controls (kinase activity without test substance) are set equal to 100 percent and all other radioactivity values (after subtracting the blank value) are expressed set in relation thereto (for example in % of the control).
IC50 values (50% inhibition) are determined with the aid of statistics programmes, such as, for example, RS1.

For experiment [1], the system named is PDK1 kinase activity in PC3 cells (phospho-T308-PKB). Put plainly: Cellular testing of PDK1 kinase inhibitors in PC3 cells (Luminex, phospho-T308-PKB). The class given is cell-based. The following applies: Homo sapiens, PC-3, 0.5 h, 30 min with test substance, serum-free, phospho-T308-PKB by Luminex, read-out: IC50 [PC3 P-PKB Thr308]. As to the method: Method for the Cellular Testing of PDK1 Kinase Inhibitors in PC3 Cells.
The cellular assay for the determination of the PDK1 kinase activity is carried out as a Luminex assay in the 96-well format. PC3 cells are sown at 20,000 cells per well in 100 μl of medium (45% of […]/45% of Ham's F12/10% of FCS) and incubated on the following day for 30 min with a serial dilution of the test substance (7 concentrations) under serum-free conditions. The cells are subsequently lysed using 90 μl of lysis buffer (20 mM tris/HCl pH 8.0, 150 mM NaCl, 1% of NP40, 10% of glycerol, 1% of phosphatase inhibitor I, 1% of phosphatase inhibitor II, 0.1% of protease inhibitor cocktail III, 0.01% of benzonase) per well, and the lysates are separated off from insoluble cell constituents by means of centrifugation through a 96-well filter plate (0.65 μm). The lysates are incubated overnight at 4° C. with shaking with Luminex beads to which an anti-total PKB antibody is coupled. The detection is carried out on the following day by addition of a phospho-T308-PKB antibody and a species-specific […] secondary antibody. The detection of phospho-T308-PKB is carried out by measurement in a Luminex100 instrument by determination of 100 events per cavity in a measurement time of 60 sec. As pharmacological blank, the signals obtained from cells which have been treated with 10 μM staurosporin are subtracted from all other batches. The control value used for maximum phosphorylation of PKB on T308 are the signals from cells which have only been treated with the solvent (0.3% of DMSO). The values of the batches treated with test substance are calculated therefrom as percentage of control, and IC50 values are determined by means of RS1.

T1 sequence (O15530 51-556): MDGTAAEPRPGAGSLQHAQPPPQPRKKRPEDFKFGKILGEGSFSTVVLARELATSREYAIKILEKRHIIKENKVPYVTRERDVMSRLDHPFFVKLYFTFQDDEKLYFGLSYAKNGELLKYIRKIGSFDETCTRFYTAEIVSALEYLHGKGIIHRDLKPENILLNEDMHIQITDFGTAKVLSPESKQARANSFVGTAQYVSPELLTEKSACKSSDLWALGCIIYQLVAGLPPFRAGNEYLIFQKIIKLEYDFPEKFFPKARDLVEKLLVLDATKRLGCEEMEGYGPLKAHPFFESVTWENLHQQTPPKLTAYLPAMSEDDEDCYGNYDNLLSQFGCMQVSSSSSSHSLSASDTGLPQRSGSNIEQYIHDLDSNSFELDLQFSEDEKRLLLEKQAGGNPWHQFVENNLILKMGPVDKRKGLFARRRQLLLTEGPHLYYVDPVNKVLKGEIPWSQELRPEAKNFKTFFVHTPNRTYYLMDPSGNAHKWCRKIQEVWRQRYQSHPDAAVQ

For the compound `CCCCc1cc(-c2c[nH]c3ncc(-c4cnn(CCN(C)C)c4)cc23)nc(N)n1` [Compound A85, 4-Butyl-6-{5-[1-(2-dimethylaminoethyl)-1H-pyrazol-4-yl]-1H-pyrrolo[2,3-b]-pyridin-3-yl}pyrimidin-2-ylamine], the IC50 lay in the range of 10 to 1000 nM at PDK1 and 1000 to 10000 nM in experiment [1].

Consider `CCCCc1cc(-c2c[nH]c3ncc(-c4cnn(C5CCN(C(C)=O)CC5)c4)cc23)nc(N)n1` [Compound A86, 1-(4-{4-[3-(2-Amino-6-butylpyrimidin-4-yl)-1H-pyrrolo[2,3-b]pyridin-5-yl]-pyrazol-1-yl}piperidin-1-yl)ethanone], for which the concentration for half-maximal inhibition (IC50) fell in the range of 10 to 1000 nM at PDK1 and 1000 to 10000 nM in experiment [1].

Take `CCCCc1cc(-c2c[nH]c3ncc(-c4cnn(C5CCNCC5)c4)cc23)nc(N)n1` [Compound A87, 4-Butyl-6-[5-(1-piperidin-4-yl-1H-pyrazol-4-yl)-1H-pyrrolo[2,3-b]pyridin-3-yl]-pyrimidin-2-ylamine]: the half-inhibitory concentration (IC50) at PDK1 lay within 10 to 1000 nM; in experiment [1], 1000 to 10000 nM.

As to `CCCCc1cc(-c2c[nH]c3ncc(-c4cnn(CCO)c4)cc23)nc(N)n1` [Compound A88, 2-{4-[3-(2-Amino-6-butylpyrimidin-4-yl)-1H-pyrrolo[2,3-b]pyridin-5-yl]pyrazol-1-yl}ethanol], the IC50 against PDK1 was in the range of 10 to 1000 nM; in experiment [1] it was 1000 to 10000 nM.

With `CCCCc1cc(-c2c[nH]c3ncc(-c4cnn(C5CCN(C)CC5)c4)cc23)nc(N)n1` [Compound A89, 4-Butyl-6-{5-[1-(1-methylpiperidin-4-yl)-1H-pyrazol-4-yl]-1H-pyrrolo[2,3-b]-pyridin-3-yl}pyrimidin-2-ylamine], the values for the IC50 (at PDK1; in experiment [1]) were 10 to 1000 nM and 1000 to 10000 nM, respectively.

Regarding `CC(=O)NCCCc1cc(-c2c[nH]c3ncc(-c4cnn(C(C)C)c4)cc23)nc(N)n1` [Compound A97, N-(3-{2-Amino-6-[5-(1-isopropyl-1H-pyrazol-4-yl)-1H-pyrrolo[2,3-b]pyridin-3-yl]pyrimidin-4-yl}propyl)acetamide], the IC50 on PDK1 lay within 10 to 1000 nM; in experiment [1], 10000 to 20000 nM.

`CCc1cc(-c2c[nH]c3ncc(-c4cnn(Cc5cccc(F)c5)c4)cc23)nc(N)n1` [Compound A98, 4-Ethyl-6-{5-[1-(3-fluorobenzyl)-1H-pyrazol-4-yl]-1H-pyrrolo[2,3-b]pyridin-3-yl}pyrimidin-2-ylamine]: the IC50 on PDK1 was 10 to 1000 nM; in experiment [1], 1000 to 10000 nM.

On to `CCc1cc(-c2c[nH]c3ncc(-c4cnn(Cc5ccc(F)c(F)c5)c4)cc23)nc(N)n1` [Compound A99, 4-{5-[1-(3,4-Difluorobenzyl)-1H-pyrazol-4-yl]-1H-pyrrolo[2,3-b]pyridin-3-yl}-6-ethylpyrimidin-2-ylamine], for which the IC50 on PDK1 was in the range of 10 to 1000 nM; in experiment [1], 10000 to 20000 nM.

As to `CC(C)n1cc(-c2cnc3[nH]cc(-c4cc(CCC(=O)N(C)C)nc(N)n4)c3c2)cn1` [Compound A101, 3-{2-Amino-6-[5-(1-isopropyl-1H-pyrazol-4-yl)-1H-pyrrolo[2,3-b]pyridin-3-yl]-pyrimidin-4-yl}-N,N-dimethylpropionamide], the IC50 on PDK1 fell in the range of 10 to 1000 nM; in experiment [1], 10000 to 20000 nM.

In the case of `CCC(O)c1cc(-c2c[nH]c3ncc(-c4cnn(C(C)C)c4)cc23)nc(N)n1` (centres unmarked) [Compound A103, 1-{2-Amino-6-[5-(1-isopropyl-1H-pyrazol-4-yl)-1H-pyrrolo[2,3-b]pyridin-3-yl]-pyrimidin-4-yl}propan-1-ol], the IC50 at PDK1 is 10 to 1000 nM; in experiment [1], 10000 to 20000 nM.

As for `CC(C)CC(O)c1cc(-c2c[nH]c3ncc(-c4cnn(C(C)C)c4)cc23)nc(N)n1` (centres unmarked) [Compound A104, 1-{2-Amino-6-[5-(1-isopropyl-1H-pyrazol-4-yl)-1H-pyrrolo[2,3-b]pyridin-3-yl]-pyrimidin-4-yl}-3-methylbutan-1-ol], the 50% inhibitory concentration (IC50) at PDK1 fell in the range of 10 to 1000 nM; in experiment [1], 1000 to 10000 nM.

Take `Nc1nc(-c2c[nH]c3ncccc23)cc(C2CCCCC2)n1` [Compound A105, 4-Cyclohexyl-6-(1H-pyrrolo[2,3-b]pyridin-3-yl)pyrimidin-2-ylamine]: the results for the IC50 (on PDK1; in experiment [1]) were 10 to 1000 nM and 10000 to 20000 nM, respectively.

For `CC(C)n1cc(-c2cnc3[nH]cc(-c4cc(CCCn5ccnc5)nc(N)n4)c3c2)cn1` [Compound A108, 4-(3-Imidazol-1-ylpropyl)-6-[5-(1-isopropyl-1H-pyrazol-4-yl)-1H-pyrrolo-[2,3-b]pyridin-3-yl]pyrimidin-2-ylamine], the IC50 against PDK1 fell in the range of 10 to 1000 nM; in experiment [1], 10000 to 20000 nM.

In the case of `CC(C)n1cc(-c2cnc3[nH]cc(-c4cc(CCn5ccnc5)nc(N)n4)c3c2)cn1` [Compound A110, 4-(2-Imidazol-1-ylethyl)-6-[5-(1-isopropyl-1H-pyrazol-4-yl)-1H-pyrrolo[2,3-b]-pyridin-3-yl]pyrimidin-2-ylamine], the figures for the IC50 (against PDK1; in experiment [1]) were 10 to 1000 nM and 10000 to 20000 nM, respectively.

For `CC(C)n1cc(-c2cnc3[nH]cc(-c4cc(C5CCCCC5)nc(N)n4)c3c2)cn1` [Compound A111, 4-Cyclohexyl-6-[5-(1-isopropyl-1H-pyrazol-4-yl)-1H-pyrrolo[2,3-b]pyridin-3-yl]pyrimidin-2-ylamine], the IC50 against PDK1 lay within 10 to 1000 nM; in experiment [1], 1000 to 10000 nM.

Regarding `Nc1nc(-c2c[nH]c3ncccc23)cc(C2(O)CCN(C(=O)OCc3ccccc3)CC2)n1` [Compound A113, 4-[2-Amino-6-(1H-pyrrolo[2,3-b]pyridin-3-yl)pyrimidin-4-yl]-4-hydroxypiperidine-1-carboxylic acid benzyl ester], the half-maximal inhibitory concentration (IC50) (against PDK1; in experiment [1]) was 1000 to 10000 nM each time.

`CC(C)N1CCC(O)(c2cc(-c3c[nH]c4ncc(-c5cnn(C(C)C)c5)cc34)nc(N)n2)CC1` [Compound A114, 4-{2-Amino-6-[5-(1-isopropyl-1H-pyrazol-4-yl)-1H-pyrrolo[2,3-b]pyridin-3-yl]-pyrimidin-4-yl}-1-isopropylpiperidin-4-ol]: the IC50 against PDK1 lay in the range of 10 to 1000 nM; in experiment [1], 10000 to 20000 nM.

`CC(C)n1cc(-c2cnc3[nH]cc(-c4cc(C(O)c5ccccc5)nc(N)n4)c3c2)cn1` (centres unmarked) [Compound A115, {2-Amino-6-[5-(1-isopropyl-1H-pyrazol-4-yl)-1H-pyrrolo[2,3-b]pyridin-3-yl]-pyrimidin-4-yl}phenylmethanol]: the figures for the IC50 (at PDK1; in experiment [1]) were 1000 to 10000 nM and 10000 to 20000 nM, respectively.

In the case of `CC(C)n1cc(-c2cnc3[nH]cc(-c4cc(C5(O)CCN(CCc6ccc(F)cc6)CC5)nc(N)n4)c3c2)cn1` [Compound A116, 4-{2-Amino-6-[5-(1-isopropyl-1H-pyrazol-4-yl)-1H-pyrrolo[2,3-b]pyridin-3-yl]-pyrimidin-4-yl}-1-[2-(4-fluorophenyl)ethyl]piperidin-4-ol], the values for the IC50 (against PDK1; in experiment [1]) were 10 to 1000 nM and 10000 to 20000 nM, respectively.

For `CCc1cc(-c2c[nH]c3ncc(-c4cnn(C(C)C(=O)Nc5ccc6[nH]ccc6c5)c4)cc23)nc(N)n1` (centres unmarked) [Compound A121, 2-{4-[3-(2-Amino-6-ethylpyrimidin-4-yl)-1H-pyrrolo[2,3-b]pyridin-5-yl]pyrazol-1-yl}-N-(1H-indol-5-yl)propionamide], the 50% inhibitory concentration (IC50) at PDK1 lay within 10 to 1000 nM; in experiment [1], 1000 to 10000 nM.

As for `CC(C)n1cc(-c2cnc3[nH]cc(-c4cc(C5(O)CCN(C(=O)OCc6ccccc6)CC5)nc(N)n4)c3c2)cn1` [Compound A122, 4-{2-Amino-6-[5-(1-isopropyl-1H-pyrazol-4-yl)-1H-pyrrolo[2,3-b]pyridin-3-yl]-pyrimidin-4-yl}-4-hydroxypiperidine-1-carboxylic acid benzyl ester], the IC50 at PDK1 is 10 to 1000 nM; in experiment [1], 10000 to 20000 nM.

Take `CC(C)n1cc(-c2cnc3[nH]cc(-c4cc(C5(O)CCNCC5)nc(N)n4)c3c2)cn1` [Compound A125, 4-{2-Amino-6-[5-(1-isopropyl-1H-pyrazol-4-yl)-1H-pyrrolo[2,3-b]pyridin-3-yl]-pyrimidin-4-yl}piperidin-4-ol]: the IC50 lay in the range of 1000 to 10000 nM on PDK1 and 10000 to 20000 nM in experiment [1].

Usually IC50 stands for the concentration that inhibits the measured activity by half.
